Laboratory results: paper PMC10043345, “Discovery of BAR502, as potent steroidal antagonist of leukemia inhibitory factor receptor for the treatment of pancreatic adenocarcinoma” (Frontiers in Oncology, 2023)

Tested on: MIA PaCa-2 cells
Test: Annexin V flow cytometry (apoptosis)
Assay type: cell-based, human
Conditions: BAR502 10-20 µM + LIF 10 ng/mL; p<0.05
Procedure: MIA-PaCa2 cells were seeded in 6-well tissue culture plate (cell density 700 × 10^3/well) and cultured as specified above. Cells were serum-starved for 8 h and then incubated with LIF (10 ng/mL) alone or plus BAR502 (10, 20 µM) or a vehicle for 24 h. The intracellular flow cytometry staining for Ki-67 was performed using the following reagents: Ki-67 Monoclonal Antibody (SolA15), Alexa Fluor™ 488, (eBioscience™, San Diego, California, USA) and 7-AAD to characterize the cell cycle phases G0-G1 and S-G2-M. Before intracellular IC-FACS, staining cells were fixed for 30 min in the dark using IC Fixation buffer (eBioscience™) and then permeabilized using Permeabilization buffer (10X) (eBioscience™). The staining for Annexin V was performed using the Annexin V Antibody (A13199, Thermofisher Scientific, Waltham, MA, USA) to evaluate the apoptosis rate. Briefly, 5 μL of Annexin V Antibody was added to each 100 μL of cell suspension, and cells were incubated the at room temperature for 15 min. Flow cytometry analyses were carried out using a 3-laser standard configuration ATTUNE NxT (LIFe Technologies, Carlsbad, CA, USA). Data were analyzed using FlowJo software (TreeStar) and the gates set using a fluorescence minus-one (FMO) control strategy. […] The channel in which the conjugated Ab is missing is the one for which the fluorescence minus one provides a gating control.

CC[C@H]1[C@@H](O)C2C3CC[C@H]([C@H](C)CCO)[C@@]3(C)CCC2[C@@]2(C)CC[C@@H](O)C[C@@H]12 (stereo partly shown) [BAR502]
effect on percentage of Annexin V+ cells: increased the percentage of Annexin V^+ cells
